Laboratory results as given in patent US20160303184A1, “VANCOMYCIN-SUGAR CONJUGATES AND USES THEREOF” (JAWAHARLAL NEHRU CENTRE FOR ADVANCED SCIENTIFIC RESEARCH …, priority 2013, published 2016).
Converted amounts (≈) assume the structure as drawn. Where two headings read alike, the source gives them in different places.

Experiments:
Type in all cases: cell-based
[1] = system: Vancomycin intermediate resistant S. aureus; test: MIC, micro-dilution broth, VISA; conditions: read-out: MIC VISA
Procedure: (§1) All test compounds were assayed in a micro-dilution broth format. Stock solutions were made by serially diluting the compounds using autoclaved millipore water or broth media. The antibacterial activity of the compounds was determined against methicillin-sensitive S. aureus (MSSA), methicillin-resistant S. aureus (MRSA), vancomycin-intermediate-resistant S. aureus (VISA), vancomycin-sensitive E. faecium (VSE) and vancomycin-resistant E. faecium (VRE). Bacteria, to be tested, were grown for about 10 h in the suitable media, MSSA, MRSA and VISA were grown in yeast-dextrose broth (about 1 g of beef extract, about 2 g of yeast extract, about 5 g of peptone and about 5 g of NaCl in about 1000 mL of sterile distilled water (pH-7)). For solid media, about 5% agar was used along with above mentioned composition. VSE and VRE were cultured in brain heart infusion broth (Himedia). The bacterial samples were freeze dried and stored at −80° C. About 5 μL of these stocks were added to about 3 mL of the nutrient broth and the culture was grown for about 6 h at about 37° C. prior to the experiments. This 6 h grown culture gives about 10^9 cfu/mL and this was determined by spread plating method. The 6 h grown culture was diluted to give effective cell concentration of about 10^5 cfu/mL which was then used for determining MIC. Compounds were serially diluted, in sterile water (2 fold dilution is employed) in a way that the working concentration was about 10 μM for MSSA, MRSA, and VSE while for VRE and VISA it was about 100 μM. About 50 μL of these serial dilutions were added to the wells of 96 well plate followed by the addition of about 150 μL of bacterial solution. The plates were then incubated at about 37° C., 150 rpm in the incubator and O.D at 600 nm was recorded at an interval of about 10 h and 24 h using TECAN (Infinite series, M200 pro) Plate Reader. Each concentration had triplicate values and the whole experiment was done at least twice and the MIC value was determined by taking the average of triplicate. O. D. values for each concentration and plotting it against concentration. The data was then subjected to sigmoidal fitting. From the curve the MIC value was determined, as the point in the curve where the O. D. was similar to that of control having no bacteria.

[2] = system: Vancomycin-resistant E. faecium (VanA, ATCC 51559); test: MIC, micro-dilution broth, VRE (VanA); conditions: E. faecium ATCC 51559, read-out: MIC VRE (VanA)
Procedure: as §1

[3] = system: Methicillin-resistant S. aureus (ATCC 33591); test: MIC, micro-dilution broth, MRSA; conditions: ATCC 33591, read-out: MIC MRSA
Procedure: as §1

[4] = system: Methicillin-sensitive S. aureus (MTCC 737); test: MIC, micro-dilution broth, MSSA; conditions: MTCC 737, read-out: MIC MSSA
Procedure: as §1

[5] = system: Vancomycin-sensitive E. faecium (ATCC 19634); test: MIC, micro-dilution broth, VSE; conditions: read-out: MIC VSE
Procedure: as §1

[6] = system: Vancomycin-resistant E. faecalis (VanA, ATCC 51575); test: MIC, micro-dilution broth, VRE (VanB); conditions: Enterococcus faecalis; E. faecalis ATCC 51575; read-out: MIC VRE (VanB)
[7] = system: methicillin-resistant S. aureus clinical isolate; test: MIC, clinical isolate of methicillin-resistant S. aureus; conditions: Staphylococcus aureus, read-out: MIC S. aureus
Procedure: as §1

[8] = system: methicillin-resistant S. haemolyticus clinical isolate; test: MIC, clinical isolate of methicillin-resistant S. haemolyticus; conditions: Staphylococcus haemolyticus; clinical isolate, methicillin-resistant; read-out: MIC S. haemolyticus
[9] = system: methicillin-resistant S. epidermidis clinical isolate; test: MIC, clinical isolate of methicillin-resistant S. epidermidis; conditions: Staphylococcus epidermidis, read-out: MIC S. epidermidis
[10] = Enterococcus faecium, ATCC19634, ATCC 19634

SMILES | MIC ([1]; Staphylococcus aureus, VISA) [µM] | MIC ([2]; Enterococcus faecium) [µM] | MIC ([3]; Staphylococcus aureus) [µM] | MIC ([4]; Staphylococcus aureus) [µM] | MIC [5, 10] [µM] | MIC [1] [µM] | MIC [2] [µM] | MIC [3] [µM] | MIC [4] [µM] | MIC ([5]; ATCC 19634) [µM] | MIC [6] [µM] | MIC [7] [µM] | MIC [8] [µM] | MIC [9] [µM]
CN[C@H](CC(C)C)C(=O)N[C@H]1C(=O)N[C@@H](CC(N)=O)C(=O)N[C@H]2C(=O)N[C@H]3C(=O)N[C@H](C(=O)N[C@H](C(=O)NCCOC4OC(CO)C(O)C(O)C4O)c4cc(O)cc(O)c4-c4cc3ccc4O)[C@H](O)c3ccc(c(Cl)c3)Oc3cc2cc(c3O[C@H]2OC(CO)[C@H](O)C(O)C2O[C@H]2C[C@@](C)(N)[C@H](O)C(C)O2)Oc2ccc(cc2Cl)[C@H]1O (stereo partly drawn) [Compound 1] | 2.4 (≈ 3.97 µg/mL) | > 100 | 1.2 (≈ 1.99 µg/mL) | 1.4 (≈ 2.32 µg/mL) | 0.6 (≈ 0.993 µg/mL) |  |  |  |  |  |  |  |  | 
CN[C@H](CC(C)C)C(=O)N[C@H]1C(=O)N[C@@H](CC(N)=O)C(=O)N[C@H]2C(=O)N[C@H]3C(=O)N[C@H](C(=O)N[C@H](C(=O)NCCOC4OC(CO)C(O)C(O)C4O)c4cc(O)cc(O)c4-c4cc3ccc4O)[C@H](O)c3ccc(c(Cl)c3)Oc3cc2cc(c3O[C@H]2OC(CO)[C@H](O)C(O)C2O[C@H]2C[C@@](C)(N)[C@H](O)C(C)O2)Oc2ccc(cc2Cl)[C@H]1O (stereo partly drawn) [Compound 2] |  |  |  |  |  | 2.02 (≈ 3.34 µg/mL) | >100 | 1.4 (≈ 2.32 µg/mL) | 1.2 (≈ 1.99 µg/mL) | 1.2 (≈ 1.99 µg/mL) |  |  |  | 
CN[C@H](CC(C)C)C(=O)N[C@H]1C(=O)N[C@@H](CC(N)=O)C(=O)N[C@H]2C(=O)N[C@H]3C(=O)N[C@H](C(=O)N[C@H](C(=O)NCCCNC(=O)[C@H](O)[C@@H](O)[C@H](OC4OC(CO)C(O)C(O)C4O)[C@H](O)CO)c4cc(O)cc(O)c4-c4cc3ccc4O)[C@H](O)c3ccc(c(Cl)c3)Oc3cc2cc(c3O[C@H]2OC(CO)[C@H](O)C(O)C2O[C@H]2C[C@@](C)(N)[C@H](O)C(C)O2)Oc2ccc(cc2Cl)[C@H]1O (stereo partly drawn) [Compound 4] | 0.3 (≈ 0.554 µg/mL) | 36 (≈ 66.4 µg/mL) | 0.38 (≈ 0.701 µg/mL) | 0.3 (≈ 0.554 µg/mL) | 0.4 (≈ 0.738 µg/mL) |  |  |  |  |  |  |  |  | 
CN[C@H](CC(C)C)C(=O)N[C@H]1C(=O)N[C@@H](CC(N)=O)C(=O)N[C@H]2C(=O)N[C@H]3C(=O)N[C@H](C(=O)N[C@H](C(=O)NCCCNCC(O)C(O)C(OC4OC(CO)C(O)C(O)C4O)C(O)CO)c4cc(O)cc(O)c4-c4cc3ccc4O)[C@H](O)c3ccc(c(Cl)c3)Oc3cc2cc(c3O[C@H]2OC(CO)[C@H](O)C(O)C2O[C@H]2C[C@@](C)(N)[C@H](O)C(C)O2)Oc2ccc(cc2Cl)[C@H]1O (stereo partly drawn) [Compound 5] | 1.08 (≈ 1.98 µg/mL) | > 100 | 1 (≈ 1.83 µg/mL) | 1 (≈ 1.83 µg/mL) | 0.66 (≈ 1.21 µg/mL) |  |  |  |  |  |  |  |  | 
CN[C@H](CC(C)C)C(=O)N[C@H]1C(=O)N[C@@H](CC(N)=O)C(=O)N[C@H]2C(=O)N[C@H]3C(=O)N[C@H](C(=O)N[C@H](C(=O)NCCCNCC(O)C(O)C(OC4OC(CO)C(O)C(O)C4O)C(O)CO)c4cc(O)cc(O)c4-c4cc3ccc4O)[C@H](O)c3ccc(c(Cl)c3)Oc3cc2cc(c3O[C@H]2OC(CO)[C@H](O)C(O)C2O[C@H]2C[C@@](C)(N)[C@H](O)C(C)O2)Oc2ccc(cc2Cl)[C@H]1O (stereo partly drawn) [Compound 6] |  |  |  |  |  | 0.99 (≈ 1.81 µg/mL) | >100 | 1.0 (≈ 1.83 µg/mL) | 1.0 (≈ 1.83 µg/mL) | 0.5 (≈ 0.916 µg/mL) |  |  |  | 
CCCCCCCCN[C@]1(C)C[C@H](OC2C(O)[C@@H](O)C(CO)O[C@@H]2Oc2c3cc4cc2Oc2ccc(cc2Cl)[C@@H](O)[C@@H](NC(=O)[C@@H](CC(C)C)NC)C(=O)N[C@@H](CC(N)=O)C(=O)N[C@H]4C(=O)N[C@H]2C(=O)N[C@H](C(=O)N[C@H](C(=O)NCCCNC(=O)[C@H](O)[C@@H](O)[C@H](OC4OC(CO)C(O)C(O)C4O)[C@H](O)CO)c4cc(O)cc(O)c4-c4cc2ccc4O)[C@H](O)c2ccc(c(Cl)c2)O3)OC(C)[C@@H]1O (stereo partly drawn) [Compound 17] | 0.31 (≈ 0.607 µg/mL) | 2 (≈ 3.92 µg/mL) | 0.3 (≈ 0.587 µg/mL) | 0.2 (≈ 0.392 µg/mL) | 0.2 (≈ 0.392 µg/mL) |  |  |  |  |  | 6.2 (≈ 12.1 µg/mL) | 0.2 (≈ 0.392 µg/mL) | 0.4 (≈ 0.783 µg/mL) | 0.3 (≈ 0.587 µg/mL)
CCCCCCCCCCCCN[C@]1(C)C[C@H](OC2C(O)[C@@H](O)C(CO)O[C@@H]2Oc2c3cc4cc2Oc2ccc(cc2Cl)[C@@H](O)[C@@H](NC(=O)[C@@H](CC(C)C)NC)C(=O)N[C@@H](CC(N)=O)C(=O)N[C@H]4C(=O)N[C@H]2C(=O)N[C@H](C(=O)N[C@H](C(=O)NCCCNC(=O)[C@H](O)[C@@H](O)[C@H](OC4OC(CO)C(O)C(O)C4O)[C@H](O)CO)c4cc(O)cc(O)c4-c4cc2ccc4O)[C@H](O)c2ccc(c(Cl)c2)O3)OC(C)[C@@H]1O (stereo partly drawn) [Compound 18] | 0.22 (≈ 0.443 µg/mL) | 0.8 (≈ 1.61 µg/mL) | 0.3 (≈ 0.604 µg/mL) | 0.2 (≈ 0.403 µg/mL) | 0.2 (≈ 0.403 µg/mL) |  |  |  |  |  | 1 (≈ 2.01 µg/mL) | 0.3 (≈ 0.604 µg/mL) | 0.5 (≈ 1.01 µg/mL) | 0.35 (≈ 0.705 µg/mL)

Second part, led by results:

MIC ([1]; Staphylococcus aureus, VISA) [µM] | MIC ([2]; Enterococcus faecium) [µM] | MIC ([3]; Staphylococcus aureus) [µM] | MIC ([4]; Staphylococcus aureus) [µM] | MIC [5, 10] [µM] | MIC [1] [µM] | MIC [2] [µM] | MIC [3] [µM] | MIC [4] [µM] | MIC ([5]; ATCC 19634) [µM] | MIC [6] [µM] | SMILES | MIC [7] [µM] | MIC [8] [µM] | MIC [9] [µM]
0.88 (≈ 1.48 µg/mL) | 54 (≈ 90.9 µg/mL) | 0.7 (≈ 1.18 µg/mL) | 0.6 (≈ 1.01 µg/mL) | 0.5 (≈ 0.842 µg/mL) |  |  |  |  |  |  | CN[C@H](CC(C)C)C(=O)N[C@H]1C(=O)N[C@@H](CC(N)=O)C(=O)N[C@H]2C(=O)N[C@H]3C(=O)N[C@H](C(=O)N[C@H](C(=O)NCCCNC(=O)[C@H](O)[C@@H](O)[C@H](O)[C@H](O)CO)c4cc(O)cc(O)c4-c4cc3ccc4O)[C@H](O)c3ccc(c(Cl)c3)Oc3cc2cc(c3O[C@H]2OC(CO)[C@H](O)C(O)C2O[C@H]2C[C@@](C)(N)[C@H](O)C(C)O2)Oc2ccc(cc2Cl)[C@H]1O (stereo partly drawn) [Compound 3] |  |  | 
0.32 (≈ 0.509 µg/mL) | 14 (≈ 22.3 µg/mL) | 0.3 (≈ 0.477 µg/mL) | 0.3 (≈ 0.477 µg/mL) | 0.2 (≈ 0.318 µg/mL) |  |  |  |  |  | 6.2 (≈ 9.86 µg/mL) | CCCCCCCCCCN[C@]1(C)C[C@H](OC2C(O)[C@@H](O)C(CO)O[C@@H]2Oc2c3cc4cc2Oc2ccc(cc2Cl)[C@@H](O)[C@@H](NC(=O)[C@@H](CC(C)C)NC)C(=O)N[C@@H](CC(N)=O)C(=O)N[C@H]4C(=O)N[C@H]2C(=O)N[C@H](C(=O)N[C@H](C(=O)O)c4cc(O)cc(O)c4-c4cc2ccc4O)[C@H](O)c2ccc(c(Cl)c2)O3)OC(C)[C@@H]1O (stereo partly drawn) [Compound 8] |  |  | 
0.4 (≈ 0.625 µg/mL) | 25 (≈ 39 µg/mL) | 0.3 (≈ 0.468 µg/mL) | 0.3 (≈ 0.468 µg/mL) | 0.4 (≈ 0.625 µg/mL) |  |  |  |  |  | 12.5 (≈ 19.5 µg/mL) | CCCCCCCCN[C@]1(C)C[C@H](OC2C(O)[C@@H](O)C(CO)O[C@@H]2Oc2c3cc4cc2Oc2ccc(cc2Cl)[C@@H](O)[C@@H](NC(=O)[C@@H](CC(C)C)NC)C(=O)N[C@@H](CC(N)=O)C(=O)N[C@H]4C(=O)N[C@H]2C(=O)N[C@H](C(=O)N[C@H](C(=O)O)c4cc(O)cc(O)c4-c4cc2ccc4O)[C@H](O)c2ccc(c(Cl)c2)O3)OC(C)[C@@H]1O (stereo partly drawn) [Compound 15] |  |  | 
0.3 (≈ 0.485 µg/mL) | 7 (≈ 11.3 µg/mL) | 0.3 (≈ 0.485 µg/mL) | 0.3 (≈ 0.485 µg/mL) | 0.2 (≈ 0.324 µg/mL) |  |  |  |  |  | 3.1 (≈ 5.01 µg/mL) | CCCCCCCCCCCCN[C@]1(C)C[C@H](OC2C(O)[C@@H](O)C(CO)O[C@@H]2Oc2c3cc4cc2Oc2ccc(cc2Cl)[C@@H](O)[C@@H](NC(=O)[C@@H](CC(C)C)NC)C(=O)N[C@@H](CC(N)=O)C(=O)N[C@H]4C(=O)N[C@H]2C(=O)N[C@H](C(=O)N[C@H](C(=O)O)c4cc(O)cc(O)c4-c4cc2ccc4O)[C@H](O)c2ccc(c(Cl)c2)O3)OC(C)[C@@H]1O (stereo partly drawn) [Compound 16] |  |  | 
